{
  "source": "paper PMC5421785",
  "about": "“Citrullination only infrequently impacts peptide binding to HLA class II MHC” (PLoS ONE, 2017)",
  "key": {"HLA-DRB1*04:01": {"biological_target": "T1, HLA-DRB1*04:01 (Homo sapiens, UniProt P01903+P01911, A100K/A169T/F76Y/I96L/K127E/L162R/M171V/N62H/P40V/Q125Y/R42H/S133A/S149N/S66Y/V115G/V209L/W38E)", "T1 construct": "EBV transformed homozygous cell lines were used as sources of MHC molecules; endogenous in cells; host or cells: EBV transformed homozygous cell lines", "assay": "HLA class II peptide binding, inhibition of radiolabeled peptide binding to purified MHC", "conditions": "read-out: DRB1*04:01 binding capacity, WT peptide (IC50 nM)"}, "HLA-DRB1*01:01": {"biological_target": "T2, HLA-DRB1*01:01 (Homo sapiens, UniProt P01903+P01911, A100R/D57E/F55L/F60I/F76Y/I96L/L162R/M171V/P40L/Q125E/R42F/V115G/Y59C)", "T2 construct": "EBV transformed homozygous cell lines were used as sources of MHC molecules; endogenous in cells; host or cells: EBV transformed homozygous cell lines", "assay": "HLA class II peptide binding, inhibition of radiolabeled peptide binding to purified MHC", "conditions": "read-out: DRB1*01:01 binding capacity, WT peptide (IC50 nM)"}, "[1]": {"conditions": "wild-type (unmodified Arg) 15-mer peptide, purified HLA-DRB1*04:01"}, "[2]": {"conditions": "wild-type (unmodified Arg) 15-mer peptide, purified HLA-DRB1*01:01"}},
  "note": "Read-outs that look alike come from different tables or passages of the source. Ends that are not written are not given here.",
  "data": [
    {"sequence": "TNESLERQMREMEEN [Vimentin 336 WT]", "values": [
      {"measurement": "IC50", "setting": "HLA-DRB1*04:01; [1]", "result": "> 40000", "unit": "nM"},
      {"measurement": "IC50", "setting": "HLA-DRB1*01:01; [2]", "result": 15900, "unit": "nM"}
    ]},
    {"sequence": "TNLDSLPLVDTHSKR [Vimentin 426 WT]", "values": [
      {"measurement": "IC50", "setting": "HLA-DRB1*04:01; [1]", "result": "> 40000", "unit": "nM"},
      {"measurement": "IC50", "setting": "HLA-DRB1*01:01; [2]", "result": 904, "unit": "nM"}
    ]},
    {"sequence": "TVETRDGQVINETSQ [Vimentin 446 WT]", "values": [
      {"measurement": "IC50", "setting": "HLA-DRB1*04:01", "result": 9590, "unit": "nM"},
      {"measurement": "IC50", "setting": "HLA-DRB1*01:01", "result": 17900, "unit": "nM"}
    ]},
    {"sequence": "VDQLTNDKARVEVER [Vimentin 161 WT]", "values": [
      {"measurement": "IC50", "setting": "HLA-DRB1*04:01", "result": 31600, "unit": "nM"},
      {"measurement": "IC50", "setting": "HLA-DRB1*01:01", "result": 16500, "unit": "nM"}
    ]}
  ]
}
